Results from US20230312577A1, “DUAL KINASE-BROMODOMAIN INHIBITORS” (MONASH UNIVERSITY, priority 2020, published 2023).

system: OPM2 cells; assay: Cell proliferation assay (ViaLight, cellular ATP); format: cell-based; settings: Homo sapiens, OPM-2, 120 h, 5 days, 5 μM to 1 nM
Method: OPM2 cells (1×10^3) were plated in a 96 well plate. Test compounds were added to cells at final concentrations ranging from 5 μM to 1 nM. They were incubated for 5 days before they were analysed using ViaLight luminescence-based proliferation assays which detect cellular ATP, as per the manufacturer's instructions. All samples were prepared in technical triplicates. Data analysis was performed in GraphPad Prism version 7.00 for Mac OS X, (GraphPad Software, San Diego California USA) in order to calculate the GI50.

| Compound | GI50 |
| --- | --- |
| CC(=O)N1c2ccc(-c3cccc(CNC(=O)c4cn5cc(-c6cnc(N)nc6)nc(N6CCOCC6)c5n4)c3)cc2CC[C@@H]1C [Cpd 011, (S)-N-(3-(1-acetyl-2-methyl-1,2,3,4-tetrahydroquinolin-6-yl)benzyl)-6-(2-aminopyrimidin-5-yl)-8-morpholinoimidazo[1,2-a]pyrazine-2-carboxamide] | 100 to 500 nM |
| CC(=O)N1c2ccc(-c3ccc(C(=O)NCCNC(=O)c4cn5cc(-c6cnc(N)nc6)nc(N6CCOCC6)c5n4)cc3)cc2CC[C@@H]1C [Cpd 012, (S)-N-(2-(4-(1-Acetyl-2-methyl-1,2,3,4-tetrahydroquinolin-6-yl)benzamido)ethyl)-6-(2-aminopyrimidin-5-yl)-8-morpholinoimidazo[1,2-a]pyrazine-2-carboxamide] | ≤ 100 nM |
| CC(=O)N1c2ccc(-c3ccc(C(=O)N4CCN(Cc5cn6cc(-c7cnc(N)nc7)nc(N7CCOCC7)c6n5)CC4)cc3)cc2CC[C@@H]1C [Cpd 014, (S)-1-(6-(4-(4-((6-(2-Aminopyrimidin-5-yl)-8-morpholinoimidazo[1,2-a]pyrazin-2-yl)methyl)piperazine-1-carbonyl)phenyl)-2-methyl-3,4-dihydroquinolin-1(2H)-yl)ethan-1-one] | 100 to 500 nM |
| CC(=O)N1c2ccc(-c3ccc(CN4CCN(Cc5cn6cc(-c7cnc(N)nc7)nc(N7CCOCC7)c6n5)CC4)cc3)cc2CC[C@@H]1C [Cpd 015, (S)-1-(6-(4-((4-((6-(2-Aminopyrimidin-5-yl)-8-morpholinoimidazo[1,2-a]pyrazin-2-yl)methyl)piperazin-1-yl)methyl)phenyl)-2-methyl-3,4-dihydroquinolin-1(2H)-yl)ethan-1-one] | 100 to 500 nM |
| CC(=O)N1c2ccc(-c3ccc(C(=O)NCc4cn5cc(-c6cnc(N)nc6)nc(N6CCOCC6)c5n4)cc3)cc2CC[C@@H]1C [Cpd 016, (S)-4-(1-Acetyl-2-methyl-1,2,3,4-tetrahydroquinolin-6-yl)-N-((6-(2-aminopyrimidin-5-yl)-8-morpholinoimidazo[1,2-a]pyrazin-2-yl)methyl)benzamide] | 100 to 500 nM |
| CC(=O)N1c2ccc(-c3cccc(C(=O)NCc4cn5cc(-c6cnc(N)nc6)nc(N6CCOCC6)c5n4)c3)cc2CC[C@@H]1C [Cpd 017, (S)-3-(1-Acetyl-2-methyl-1,2,3,4-tetrahydroquinolin-6-yl)-N-((6-(2-aminopyrimidin-5-yl)-8-morpholinoimidazo[1,2-a]pyrazin-2-yl)methyl)benzamide] | 100 to 500 nM |
| CC(=O)N1c2ccc(-c3ccc(CC(=O)NCc4cn5cc(-c6cnc(N)nc6)nc(N6CCOCC6)c5n4)cc3)cc2CC[C@@H]1C [Cpd 018, (S)-2-(4-(1-Acetyl-2-methyl-1,2,3,4-tetrahydroquinolin-6-yl)phenyl)-N-((6-(2-aminopy-rimidin-5-yl)-8-morpholinoimidazo[1,2-a]pyrazin-2-yl)methyl)acetamide] | 100 to 500 nM |
| CC(=O)N1c2ccc(-c3cccc(CC(=O)NCc4cn5cc(-c6cnc(N)nc6)nc(N6CCOCC6)c5n4)c3)cc2CC[C@@H]1C [Cpd 019, (S)-2-(3-(1-Acetyl-2-methyl-1,2,3,4-tetrahydroquinolin-6-yl)phenyl)-N-((6-(2-aminopy-rimidin-5-yl)-8-morpholinoimidazo[1,2-a]pyrazin-2-yl)methyl)acetamide] | 100 to 500 nM |
| CC(=O)N1c2ccc(-c3ccc(NC(=O)Cc4cn5cc(-c6cnc(N)nc6)nc(N6CCOCC6)c5n4)cc3)cc2CC[C@@H]1C [Cpd 022, (S)-N-(4-(1-acetyl-2-methyl-1,2,3,4-tetrahydroquinolin-6-yl)phenyl)-2-(6-(2-aminopyrimidin-5-yl)-8-morpholinoimidazo[1,2-a]pyrazin-2-yl)acetamide] | ≤ 100 nM |
| CC(=O)N1c2ccc(-c3cccc(NC(=O)Cc4cn5cc(-c6cnc(N)nc6)nc(N6CCOCC6)c5n4)c3)cc2CC[C@@H]1C [Cpd 023, (S)-N-(3-(1-acetyl-2-methyl-1,2,3,4-tetrahydroquinolin-6-yl)phenyl)-2-(6-(2-aminopyrimidin-5-yl)-8-morpholinoimidazo[1,2-a]pyrazin-2-yl)acetamide] | 100 to 500 nM |
| CC(=O)N1c2ccc(-c3ccc(CNC(=O)Cc4cn5cc(-c6cnc(N)nc6)nc(N6CCOCC6)c5n4)cc3)cc2CC[C@@H]1C [Cpd 024, (S)-N-(4-(1-acetyl-2-methyl-1,2,3,4-tetrahydroquinolin-6-yl)benzyl)-2-(6-(2-aminopyrimidin-5-yl)-8-morpholinoimidazo[1,2-a]pyrazin-2-yl)acetamide] | > 500 nM |
| CC(=O)N1c2ccc(-c3cccc(CNC(=O)Cc4cn5cc(-c6cnc(N)nc6)nc(N6CCOCC6)c5n4)c3)cc2CC[C@@H]1C [Cpd 025, (S)-N-(3-(1-acetyl-2-methyl-1,2,3,4-tetrahydroquinolin-6-yl)benzyl)-2-(6-(2-aminopyrimidin-5-yl)-8-morpholinoimidazo[1,2-a]pyrazin-2-yl)acetamide] | 100 to 500 nM |
| CC(=O)N1c2ccc(-c3ccc(C(=O)N(C)CCN(C)C(=O)c4cn5cc(-c6cnc(N)nc6)nc(N6CCOCC6)c5n4)cc3)cc2CC[C@@H]1C [Cpd 036, (S)-N-(2-(4-(1-Acetyl-2-methyl-1,2,3,4-tetrahydroquinolin-6-yl)-N-methylbenzamido)ethyl)-6-(2-aminopyrimidin-5-yl)-N-methyl-8-morpholinoimidazo[1,2-a]pyrazine-2-carboxamide] | > 500 nM |
| CC(=O)N1c2ccc(-c3ccc(CN(C)C(=O)c4cn5cc(-c6cnc(N)nc6)nc(N6CCOCC6)c5n4)cc3)cc2CC[C@@H]1C [Cpd 037, (S)-N-(4-(1-acetyl-2-methyl-1,2,3,4-tetrahydroquinolin-6-yl)benzyl)-6-(2-aminopyrimidin-5-yl)-N-methyl-8-morpholinoimidazo[1,2-a]pyrazine-2-carboxamide] | 100 to 500 nM |
| CC(=O)N1c2ccc(-c3ccc(CN(C)C(=O)c4cc5nc(-c6cnc(N)nc6)nc(N6CCOCC6)c5s4)cc3)cc2CC[C@@H]1C [Cpd 038, (S)-N-(4-(1-acetyl-2-methyl-1,2,3,4-tetrahydroquinolin-6-yl)benzyl)-2-(2-aminopyrimidin-5-yl)-N-methyl-4-morpholinothieno[3,2-d]pyrimidine-6-carboxamide] | > 500 nM |
| CC(=O)N1c2ccc(-c3ccc(CN(C)C(=O)c4sc5c(N6CCOCC6)nc(-c6cnc(N)nc6)nc5c4C)cc3)cc2CC[C@@H]1C [Cpd 039, (S)-N-(4-(1-acetyl-2-methyl-1,2,3,4-tetrahydroquinolin-6-yl)benzyl)-2-(2-aminopyrimidin-5-yl)-N,7-dimethyl-4-morpholinothieno[3,2-d]pyrimidine-6-carboxamide] | > 500 nM |
| CC(=O)N1c2ccc(-c3ccc(C(=O)NCCCNC(=O)c4cc5nc(-c6cnc(N)nc6)nc(N6CCOCC6)c5s4)cc3)cc2CC[C@@H]1C [Cpd 040, (S)-N-(3-(4-(1-Acetyl-2-methyl-1,2,3,4-tetrahydroquinolin-6-yl)benzamido)propyl)-2-(2-aminopyrimidin-5-yl)-4-morpholinothieno[3,2-d]pyrimidine-6-carboxamide] | > 500 nM |
| CC(=O)N1c2ccc(-c3ccc(C(=O)NCCCNC(=O)c4sc5c(N6CCOCC6)nc(-c6cnc(N)nc6)nc5c4C)cc3)cc2CC[C@@H]1C [Cpd 041, (S)-N-(3-(4-(1-Acetyl-2-methyl-1,2,3,4-tetrahydroquinolin-6-yl)benzamido)propyl)-2-(2-aminopyrimidin-5-yl)-7-methyl-4-morpholinothieno[3,2-d]pyrimidine-6-carboxamide] | > 500 nM |
| CC(=O)N1c2ccc(-c3ccc(CN(C)Cc4cc5nc(-c6cnc(N)nc6)nc(N6CCOCC6)c5s4)cc3)cc2CC[C@@H]1C [Cpd 042, (S)-1-(6-(4-((((2-(2-Aminopyrimidin-5-yl)-4-morpholinothieno[3,2-d]pyrimidin-6-yl)methyl)(methyl)amino)methyl)phenyl)-2-methyl-3,4-dihydroquinolin-1(2H)-yl)ethan-1-one] | > 500 nM |
| CC(=O)N1c2ccc(-c3ccc(CN(C)Cc4sc5c(N6CCOCC6)nc(-c6cnc(N)nc6)nc5c4C)cc3)cc2CC[C@@H]1C [Cpd 043, (S)-1-(6-(4-((((2-(2-aminopyrimidin-5-yl)-7-methyl-4-morpholinothieno[3,2-d]pyrimidin-6-yl)methyl)(methyl)amino)methyl)phenyl)-2-methyl-3,4-dihydroquinolin-1(2H)-yl)ethan-1-one] | > 500 nM |
| CC(=O)N1c2ccc(-c3ccc(CCNC(=O)c4cn5cc(-c6cnc(N)nc6)nc(N6CCOCC6)c5n4)cc3)cc2CC[C@@H]1C [Cpd 044, (S)-N-(4-(1-acetyl-2-methyl-1,2,3,4-tetrahydroquinolin-6-yl)phenethyl)-6-(2-aminopyrimidin-5-yl)-8-morpholinoimidazo[1,2-a]pyrazine-2-carboxamide] | 100 to 500 nM |
| CC(=O)N1c2ccc(-c3ccc(CCNC(=O)c4cc5nc(-c6cnc(N)nc6)nc(N6CCOCC6)c5s4)cc3)cc2CC[C@@H]1C [Cpd 045, (S)-N-(4-(1-acetyl-2-methyl-1,2,3,4-tetrahydroquinolin-6-yl)phenethyl)-2-(2-aminopyrimidin-5-yl)-4-morpholinothieno[3,2-d]pyrimidine-6-carboxamide] | ≤ 100 nM |
| CC(=O)N1c2ccc(-c3ccc(CCNC(=O)c4sc5c(N6CCOCC6)nc(-c6cnc(N)nc6)nc5c4C)cc3)cc2CC[C@@H]1C [Cpd 046, (S)-N-(4-(1-acetyl-2-methyl-1,2,3,4-tetrahydroquinolin-6-yl)phenethyl)-2-(2-aminopyrimidin-5-yl)-7-methyl-4-morpholinothieno[3,2-d]pyrimidine-6-carboxamide] | 100 to 500 nM |
| CC(=O)N1c2ccc(-c3ccc(NC(=O)CNC(=O)c4sc5c(N6CCOCC6)nc(-c6cnc(N)nc6)nc5c4C)cc3)cc2CC[C@@H]1C [Cpd 047, (S)-N-(2-((4-(1-acetyl-2-methyl-1,2,3,4-tetrahydroquinolin-6-yl)phenyl)amino)-2-oxoethyl)-2-(2-aminopyrimidin-5-yl)-7-methyl-4-morpholinothieno[3,2-d]pyrimidine-6-carboxamide] | > 500 nM |
